# Laboratory results reported in patent US9067871B2, “Aminotetraline derivatives, pharmaceutical compositions containing them, and their use in therapy” (ABBVIE DEUTSCHLAND GMBH & CO KG, priority 2009, dated 2015).
# Where a name gives a salt, the structure may show the parent alone.
# Molecular target: human GlyT1c transporter (Homo sapiens (Human), UniProt P48067)
# Test: Radioligand binding assay using recombinant CHO cell membranes expressing human GlyT1
# Conditions: human GlyT1c-expressing CHO cell membranes; read-out: radioligand binding Kiapp
# Text: 2. Radioligand binding assays using recombinant CHO cell membranes expressing human GlyT1: […]
# human GlyT1c transporter, sequence (P48067 whole entry): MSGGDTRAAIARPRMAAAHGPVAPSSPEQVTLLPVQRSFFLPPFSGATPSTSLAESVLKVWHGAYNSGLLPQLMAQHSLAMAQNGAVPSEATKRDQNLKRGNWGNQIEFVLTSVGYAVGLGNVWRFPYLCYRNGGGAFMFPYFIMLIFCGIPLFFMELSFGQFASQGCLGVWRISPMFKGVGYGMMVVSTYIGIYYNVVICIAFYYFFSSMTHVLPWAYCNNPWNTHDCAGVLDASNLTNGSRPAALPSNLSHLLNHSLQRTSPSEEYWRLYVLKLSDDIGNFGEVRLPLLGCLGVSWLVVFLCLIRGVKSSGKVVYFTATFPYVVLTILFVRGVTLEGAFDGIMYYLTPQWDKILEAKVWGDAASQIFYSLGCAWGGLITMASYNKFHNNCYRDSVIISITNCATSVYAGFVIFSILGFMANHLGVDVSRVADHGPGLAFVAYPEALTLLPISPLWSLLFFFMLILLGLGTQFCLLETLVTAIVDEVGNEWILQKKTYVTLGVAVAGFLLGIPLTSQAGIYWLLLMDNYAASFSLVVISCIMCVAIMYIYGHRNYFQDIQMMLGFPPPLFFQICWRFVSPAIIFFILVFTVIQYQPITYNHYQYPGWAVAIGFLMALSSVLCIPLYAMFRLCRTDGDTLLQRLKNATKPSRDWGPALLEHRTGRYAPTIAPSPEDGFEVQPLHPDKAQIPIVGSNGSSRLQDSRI
row,Compound,Ki
1,"CCCS(=O)(=O)NCCCc1ccc2c(c1)C(Cc1ccc(F)c(F)c1)C(NCC)CC2 (centres unmarked) [Example 225, N-{3-[8-(3,4-Difluorobenzyl)-7-(ethylamino)-5,6,7,8-tetrahydronaphthalen-2-yl]propyl}propane-1-sulfonamide trifluoroacetate]",≤ 100 nM
2,"CCNC1CCc2ccc(CCCNS(=O)(=O)CC3CC3)cc2C1Cc1ccc(F)c(F)c1 (centres unmarked) [Example 226, 1-Cyclopropyl-N-{3-[8-(3,4-difluorobenzyl)-7-(ethylamino)-5,6,7,8-tetrahydronaphthalen-2-yl]propyl}methanesulfonamide trifluoroacetate]",≤ 100 nM
3,"CN(CCCc1ccc2c(c1)C(Cc1ccccc1Cl)C(N)CC2)S(=O)(=O)CC1CC1 (centres unmarked) [Example 228, N-{3-[7-Amino-8-(2-chloro-benzyl)-5,6,7,8-tetrahydro-naphthalen-2-yl]-propyl}-C-cyclopropyl-N-methyl-methanesulfonamide hydrochloride]",≤ 100 nM
4,"CN(CCCc1ccc2c(c1)C(Cc1cccc(F)c1)C(N)CC2)S(=O)(=O)CC1CC1 (centres unmarked) [Example 230, N-{3-[7-Amino-8-(3-fluorobenzyl)-5,6,7,8-tetrahydronaphthalen-2-yl]propyl}-1-cyclopropylN-methylmethanesulfonamide hydrochloride]",≤ 10 nM
5,"CCCS(=O)(=O)N(C)CCCc1ccc2c(c1)C(Cc1ccc(Cl)cc1)C(N)CC2 (centres unmarked) [Example 234, N-{3-[7-Amino-8-(4-chlorobenzyl)-5,6,7,8-tetrahydronaphthalen-2-yl]propyl}-N-methylpropane-1-sulfonamide hydrochloride]",≤ 100 nM
6,"NC1CCc2ccc(OCCNS(=O)(=O)CC3CC3)cc2C1Cc1cccc(F)c1 (centres unmarked) [Example 235, N-(2-{[7-Amino-8-(3-fluorobenzyl)-5,6,7,8-tetrahydronaphthalen-2-yl]oxy}ethyl)-1-cyclopropylmethanesulfonamide hydrochloride]",≤ 10 nM
7,"Cn1cnc(S(=O)(=O)NCc2ccc3c(c2)C(Cc2ccccc2)C(N2CCC2)CC3)c1 (centres unmarked) [Example 248, N-{[7-(Azetidin-1-yl)-8-benzyl-5,6,7,8-tetrahydronaphthalen-2-yl]methyl}-1-methyl-1H-imidazole-4-sulfonamide]",≤ 10 nM
8,"Cn1cc(S(=O)(=O)NCc2ccc3c(c2)C(Cc2ccccc2)C(N2CCC2)CC3)cn1 (centres unmarked) [Example 250, N-{[7-(Azetidin-1-yl)-8-benzyl-5,6,7,8-tetrahydronaphthalen-2-yl]methyl}-1-methyl-1H-pyrazole-4-sulfonamide]",≤ 10 nM
9,"Cn1ccc(S(=O)(=O)NCc2ccc3c(c2)C(Cc2ccccc2)C(N2CCC2)CC3)c1 (centres unmarked) [Example 251, N-{[7-(Azetidin-1-yl)-8-benzyl-5,6,7,8-tetrahydronaphthalen-2-yl]methyl}-1-methyl-1H-pyrrole-3-sulfonamide trifluoroacetate]",≤ 100 nM
10,"Cn1cnc(S(=O)(=O)NCc2ccc3c(c2)C(Cc2cccc(F)c2)C(N2CCC2)CC3)c1 (centres unmarked) [Example 256, N-{[7-(Azetidin-1-yl)-8-(3-fluorobenzyl)-5,6,7,8-tetrahydronaphthalen-2-yl]methyl}-1-methyl-1H-imidazole-4-sulfonamide hydrochloride]",≤ 100 nM
11,"Cn1cnc(S(=O)(=O)NCc2ccc3c(c2)C(Cc2ccccc2)C(N2CCOCC2)CC3)c1 (centres unmarked) [Example 257, N-{[8-Benzyl-7-(morpholin-4-yl)-5,6,7,8-tetrahydronaphthalen-2-yl]methyl}-1-methyl-1H-imidazole-4-sulfonamide]",≤ 100 nM
12,"Cn1cc(S(=O)(=O)NCc2ccc3c(c2)C(Cc2ccccc2)C(N2CCOCC2)CC3)cn1 (centres unmarked) [Example 258, N-{[8-Benzyl-7-(morpholin-4-yl)-5,6,7,8-tetrahydronaphthalen-2-yl]methyl}-1-methyl-1H-pyrazole-4-sulfonamide]",≤ 100 nM
13,"CCCS(=O)(=O)NCCCc1ccc2c(c1)C(Cc1cccc(Cl)c1)C(N1CCCC1)CC2 (centres unmarked) [Example 264, N-{3-[8-(3-Chlorobenzyl)-7-(pyrrolidin-1-yl)-5,6,7,8-tetrahydronaphthalen-2-yl]propyl}propane-1-sulfonamide hydrochloride]",≤ 1000 nM
14,"O=S(=O)(CC1CC1)NCCCc1ccc2c(c1)C(Cc1ccccc1)C(N1CCCC1)CC2 (centres unmarked) [Example 266, N-{3-[8-Benzyl-7-(pyrrolidin-1-yl)-5,6,7,8-tetrahydronaphthalen-2-yl]propyl}-1-cyclopropylmethanesulfonamide hydrochloride]",≤ 1000 nM
15,"Cn1ccc(S(=O)(=O)NCCOc2ccc3c(c2)C(Cc2cccc(F)c2)C(N2CCCC2)CC3)c1 (centres unmarked) [Example 267, N-(2-{[8-(3-Fluorobenzyl)-7-(pyrrolidin-1-yl)-5,6,7,8-tetrahydronaphthalen-2-yl]oxy}ethyl)-1-methyl-1H-pyrrole-3-sulfonamide]",≤ 100 nM
16,"CCCS(=O)(=O)NCCCc1ccc2c(c1)C(Cc1ccc(Cl)c(Cl)c1)C(NC(C)C)CC2 (centres unmarked) [Example 272, N-{3-[8-(3,4-Dichlorobenzyl)-7-(propan-2-ylamino)-5,6,7,8-tetrahydronaphthalen-2-yl]propyl}propane-1-sulfonamide]",≤ 100 nM

# More lines, now with the values ahead:
row,Ki,Compound
1,≤ 100 nM,"CCCS(=O)(=O)N(C)CCCc1ccc2c(c1)C(Cc1cccc(F)c1)C(N)CC2 (centres unmarked) [Example 227, N-{3-[7-Amino-8-(3-fluorobenzyl)-5,6,7,8-tetrahydronaphthalen-2-yl]propyl}-N-methylpropane-1-sulfonamide hydrochloride]"
2,≤ 100 nM,"CCCS(=O)(=O)N(C)CCCc1ccc2c(c1)C(Cc1ccc(F)cc1)C(N)CC2 (centres unmarked) [Example 232, N-{3-[7-Amino-8-(4-fluorobenzyl)-5,6,7,8-tetrahydronaphthalen-2-yl]propyl}-N-methylpropane-1-sulfonamide hydrochloride]"
3,≤ 100 nM,"CN(CCCc1ccc2c(c1)C(Cc1ccc(Cl)cc1)C(N)CC2)S(=O)(=O)CC1CC1 (centres unmarked) [Example 233, N-{3-[7-Amino-8-(4-chlorobenzyl)-5,6,7,8-tetrahydronaphthalen-2-yl]propyl}-1-cyclopropylN-methylmethanesulfonamide hydrochloride]"
4,≤ 1000 nM,"CCOC(=O)NC1CCc2ccc(OCCNS(=O)(=O)c3ccn(C)c3)cc2C1Cc1cc(F)cc(F)c1 (centres unmarked) [Example 236, Ethyl[1-(3,5-difluorobenzyl)-7-(2-{[(1-methyl-1H-pyrrol-3-yl)sulfonyl]amino}ethoxy)-1,2,3,4-tetrahydronaphthalen-2-yl]carbamate]"
5,≤ 10 nM,"CNC1CCc2ccc(OCCNS(=O)(=O)CC3CC3)cc2C1Cc1cc(F)cc(F)c1 (centres unmarked) [Example 243, 1-Cyclopropyl-N-(2-{[8-(3,5-difluorobenzyl)-7-(methylamino)-5,6,7,8-tetrahydronaphthalen-2-yl]oxy}ethylmethanesulfonamide hydrochloride]"
6,≤ 10 nM,"CNC1CCc2ccc(OCCNS(=O)(=O)c3ccn(C)c3)cc2C1Cc1cc(F)cc(F)c1 (centres unmarked) [Example 246, N-(2-{[8-(3,5-Difluorobenzyl)-7-(methylamino)-5,6,7,8-tetrahydronaphthalen-2-yl]oxy}ethyl)-1-methyl-1H-pyrrole-3-sulfonamide hydrochloride]"
7,≤ 10 nM,"CNC1CCc2ccc(OCCNS(=O)(=O)CC3CC3)cc2C1Cc1cccc(F)c1 (centres unmarked) [Example 247, 1-Cyclopropyl-N-(2-{[8-(3-fluorobenzyl)-7-(methylamino)-5,6,7,8-tetrahydronaphthalen-2-yl]oxy}ethyl)methanesulfonamide hydrochloride]"
8,≤ 1000 nM,"O=S(=O)(CC1CC1)NCc1ccc2c(c1)C(Cc1ccccc1)C(N1CCOCC1)CC2 (centres unmarked) [Example 259, N-{[8-Benzyl-7-(morpholin-4-yl)-5,6,7,8-tetrahydronaphthalen-2-yl]methyl}-1-cyclopropylmethanesulfonamide]"
9,≤ 1000 nM,"O=S(=O)(NCc1ccc2c(c1)C(Cc1ccccc1)C(N1CCOCC1)CC2)C1CCC1 (centres unmarked) [Example 261, N-{[8-Benzyl-7-(morpholin-4-yl)-5,6,7,8-tetrahydronaphthalen-2-yl]methyl}cyclobutanesulfonamide]"
10,≤ 100 nM,"Cn1cnc(S(=O)(=O)NCc2ccc3c(c2)C(Cc2ccccc2)C(N2CCCC2)CC3)c1 (centres unmarked) [Example 262, N-{[8-Benzyl-7-(pyrrolidin-1-yl)-5,6,7,8-tetrahydronaphthalen-2-yl]methyl}-1-methyl-1H-imidazole-4-sulfonamide]"
11,≤ 1000 nM,"Cn1cnc(S(=O)(=O)NCc2ccc3c(c2)C(Cc2ccccc2)C(N2CCCC2=O)CC3)c1 (centres unmarked) [Example 263, N-{[8-Benzyl-7-(2-oxopyrrolidin-1-yl)-5,6,7,8-tetrahydronaphthalen-2-yl]methyl}-1-methyl-1H-imidazole-4-sulfonamide]"
12,≤ 1000 nM,"CCCS(=O)(=O)NCCCc1ccc2c(c1)C(Cc1ccccc1)C(N1CCCC1)CC2 (centres unmarked) [Example 265, Propane-1-sulfonic acid [3-(8-benzyl-7-pyrrolidin-1-yl-5,6,7,8-tetrahydro-naphthalen-2-yl)propyl]-amide hydrochloride]"
13,≤ 10 nM,"Cn1ccc(S(=O)(=O)NCCOc2ccc3c(c2)C(Cc2ccccc2)C(N2CCC2)CC3)c1 (centres unmarked) [Example 268, N-(2-{[7-(Azetidin-1-yl)-8-benzyl-5,6,7,8-tetrahydronaphthalen-2-yl]oxy}ethyl)-1-methyl-1H-pyrrole-3-sulfonamide]"
14,≤ 10 nM,"Cn1ccc(S(=O)(=O)NCCOc2ccc3c(c2)C(Cc2cccc(F)c2)C(N2CCC2)CC3)c1 (centres unmarked) [Example 269, 1-Methyl-1H-pyrrole-3-sulfonic acid {2-[7-azetidin-1-yl-8-(3-fluoro-benzyl)-5,6,7,8-tetrahydro-naphthalen-2-yloxy]-ethyl}-amide]"
15,≤ 100 nM,"Cn1ccc(S(=O)(=O)NCCOc2ccc3c(c2)C(Cc2cc(F)cc(F)c2)C(NC=O)CC3)c1 (centres unmarked) [Example 271, N-(2-{[8-(3,5-Difluorobenzyl)-7-(formylamino)-5,6,7,8-tetrahydronaphthalen-2-yl]oxy}ethyl)-1-methyl-1H-pyrrole-3-sulfonamide]"
16,≤ 1000 nM,"CCCS(=O)(=O)NCCCc1ccc2c(c1)C(Cc1ccccc1)C(NC(C)C)CC2 (centres unmarked) [Example 273, N-{3-[8-Benzyl-7-(propan-2-ylamino)-5,6,7,8-tetrahydronaphthalen-2-yl]propyl}propane-1-sulfonamide hydrochloride]"
